Test results: ChEMBL document CHEMBL1201862, “PubChem BioAssay data set” (2004)
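Five compound concentrations were applied to cells in 96-well plates for 48 hours; endpoints were derived by simple linear interpolation of the resulting dose-response curve. Here, GI50 denotes the concentration required for 50% inhibition of growth.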 Calls of active or inactive are those of the source. Cut-off read from the data, not from the text of the source: active = GI50 up to about 1.1 µM and inactive = higher.

Experiments:
Experiment in all cases: NCI tumour cell line growth inhibition, 48 h
DU-145 = system: DU-145
HCT-116 = system: HCT-116
K562 = system: K562
KM12 = system: KM12
MDA-MB-231 = system: MDA-MB-231
MDA-N = system: MDA-N
MOLT-4 = system: MOLT-4
NCI-H226 = system: NCI-H226
NCI/ADR-RES = system: NCI/ADR-RES
OVCAR-5 = system: OVCAR-5
RPMI-8226 = system: RPMI-8226
RXF 393 = system: RXF 393
SNB-75 = system: SNB-75
SW-620 = system: SW-620
U-251 = system: U-251
UACC-62 = system: UACC-62
HCC 2998 = system: HCC 2998
LOX IMVI = system: LOX IMVI
OVCAR-4 = system: OVCAR-4
SK-OV-3 = system: SK-OV-3

Row | SMILES | GI50 (DU-145) | GI50 (HCT-116) | GI50 (K562) | GI50 (KM12) | GI50 (MDA-MB-231) | GI50 (MDA-N) | GI50 (MOLT-4) | GI50 (NCI-H226) | GI50 (NCI/ADR-RES) | GI50 (OVCAR-5) | GI50 (RPMI-8226) | GI50 (RXF 393) | GI50 (SNB-75) | GI50 (SW-620) | GI50 (U-251) | GI50 (UACC-62) | GI50 (HCC 2998) | GI50 (LOX IMVI) | GI50 (OVCAR-4) | GI50 (SK-OV-3)
1 | CSc1nncc2[nH]cnc12 | > 100 µM (inactive) | > 100 µM (inactive) | > 100 µM (inactive) | > 100 µM (inactive) | > 100 µM (inactive) | > 100 µM (inactive) | > 100 µM (inactive) | > 100 µM (inactive) | > 100 µM (inactive) | > 100 µM (inactive) | > 100 µM (inactive) | > 100 µM (inactive) | > 100 µM (inactive) | > 100 µM (inactive) | > 100 µM (inactive) | > 100 µM (inactive) | – | – | – | –
2 | CCOC(=O)C1CCC(=O)N1C(=O)c1ccccc1Cl (centres undefined) | > 100 µM (inactive) | > 100 µM (inactive) | > 100 µM (inactive) | > 100 µM (inactive) | > 100 µM (inactive) | > 100 µM (inactive) | > 100 µM (inactive) | > 100 µM (inactive) | > 100 µM (inactive) | > 100 µM (inactive) | > 100 µM (inactive) | > 100 µM (inactive) | > 100 µM (inactive) | > 100 µM (inactive) | > 100 µM (inactive) | 27.4 µM (inactive) | > 100 µM (inactive) | > 100 µM (inactive) | – | –
3 | COC(=O)C1(Cc2ccc3c(c2)CCC3)Cc2ccccc2C1=O (centres undefined) | 16.6 µM (inactive) | 7.8 µM (inactive) | 3.31 µM (inactive) | 1.55 µM (inactive) | 27.2 µM (inactive) | 2.72 µM (inactive) | 4.45 µM (inactive) | 18.2 µM (inactive) | 7.06 µM (inactive) | 26.4 µM (inactive) | 9.91 µM (inactive) | – | 10.8 µM (inactive) | 4.49 µM (inactive) | 13.4 µM (inactive) | 8.43 µM (inactive) | 14.6 µM (inactive) | 10.5 µM (inactive) | 26.2 µM (inactive) | 15.7 µM (inactive)
4 | CCOC(=O)c1cc2c3c(c(C(C)=O)c(O)c2[nH]1)N(C(C)=O)CC3 | 82.6 µM (inactive) | 68.4 µM (inactive) | 26.9 µM (inactive) | 45.4 µM (inactive) | > 100 µM (inactive) | > 100 µM (inactive) | 27.7 µM (inactive) | 71.4 µM (inactive) | 29.9 µM (inactive) | > 100 µM (inactive) | 19.3 µM (inactive) | 21.7 µM (inactive) | > 100 µM (inactive) | > 100 µM (inactive) | > 100 µM (inactive) | 81.3 µM (inactive) | – | > 100 µM (inactive) | – | > 100 µM (inactive)
5 | CCc1ccc2oc(=O)ccc2c1 | > 10 µM (inactive) | > 100 µM (inactive) | > 100 µM (inactive) | > 100 µM (inactive) | > 10 µM (inactive) | > 100 µM (inactive) | > 100 µM (inactive) | > 100 µM (inactive) | > 100 µM (inactive) | > 100 µM (inactive) | 91 µM (inactive) | > 100 µM (inactive) | > 100 µM (inactive) | > 100 µM (inactive) | > 100 µM (inactive) | 35.7 µM (inactive) | > 100 µM (inactive) | > 100 µM (inactive) | > 100 µM (inactive) | –
6 | C=C1c2ccccc2C(=O)c2c1c1c(C(=O)OC)c(O)ccc1n2Cc1ccccc1 | 0.242 µM (active) | 0.557 µM (active) | 0.323 µM (active) | 0.459 µM (active) | 0.355 µM (active) | 0.32 µM (active) | 0.219 µM (active) | – | 0.235 µM (active) | 1.1 µM (active) | 0.175 µM (active) | 0.267 µM (active) | 0.264 µM (active) | 0.342 µM (active) | 0.333 µM (active) | 0.284 µM (active) | – | 0.297 µM (active) | 0.558 µM (active) | 0.346 µM (active)
7 | C=C1[C@@H]2CCC3[C@]4(C)C(CC[C@@]5(C)C(=O)O[C@H](O)[C@@H]45)[C@H](O)[C@]3(C2)[C@H]1OC1OC(CO)C(O)C(O)C1O (some centres undefined) | > 50 µM (inactive) | > 50 µM (inactive) | 14.1 µM (inactive) | > 50 µM (inactive) | > 50 µM (inactive) | > 50 µM (inactive) | 17.4 µM (inactive) | > 50 µM (inactive) | > 50 µM (inactive) | > 50 µM (inactive) | 8.81 µM (inactive) | > 50 µM (inactive) | > 50 µM (inactive) | > 50 µM (inactive) | > 50 µM (inactive) | > 50 µM (inactive) | – | > 50 µM (inactive) | > 50 µM (inactive) | > 50 µM (inactive)
8 | COC(=O)[C@@H]1O[C@]12C(CO[Si](C)(C)C(C)(C)C)OC(n1ccc(=O)[nH]c1=O)C2O[Si](C)(C)C(C)(C)C (some centres undefined) | 25.2 µM (inactive) | 23.3 µM (inactive) | 25.5 µM (inactive) | 31.7 µM (inactive) | 28.2 µM (inactive) | 33.1 µM (inactive) | 8.36 µM (inactive) | 0.435 µM (active) | 30.8 µM (inactive) | 25.1 µM (inactive) | 8.85 µM (inactive) | – | > 100 µM (inactive) | 26.1 µM (inactive) | 26.2 µM (inactive) | 24.2 µM (inactive) | 6.87 µM (inactive) | 14.8 µM (inactive) | 45.7 µM (inactive) | 50.8 µM (inactive)
9 | CSc1ncnc2c1ncn2CCC(=O)O | > 100 µM (inactive) | > 100 µM (inactive) | > 100 µM (inactive) | > 100 µM (inactive) | > 100 µM (inactive) | > 100 µM (inactive) | > 100 µM (inactive) | > 100 µM (inactive) | > 100 µM (inactive) | > 100 µM (inactive) | > 100 µM (inactive) | > 100 µM (inactive) | > 100 µM (inactive) | > 100 µM (inactive) | – | > 100 µM (inactive) | – | > 100 µM (inactive) | > 100 µM (inactive) | > 100 µM (inactive)
10 | COc1ccc(NCc2c(O)ccc3ccccc23)cc1 | 76 µM (inactive) | 33.8 µM (inactive) | 10.7 µM (inactive) | 67.1 µM (inactive) | 30 µM (inactive) | 30.1 µM (inactive) | – | – | 40.5 µM (inactive) | 11.3 µM (inactive) | 24.7 µM (inactive) | 16.5 µM (inactive) | > 100 µM (inactive) | 21.4 µM (inactive) | 28.3 µM (inactive) | 8.09 µM (inactive) | – | 15.9 µM (inactive) | 43.1 µM (inactive) | > 100 µM (inactive)
11 | CC1=C(C(N)=O)C(c2ccncc2)C(C#N)=C2SCC(=O)N12 (centres undefined) | > 100 µM (inactive) | > 100 µM (inactive) | > 100 µM (inactive) | > 100 µM (inactive) | > 100 µM (inactive) | > 100 µM (inactive) | > 100 µM (inactive) | > 100 µM (inactive) | > 100 µM (inactive) | > 100 µM (inactive) | > 100 µM (inactive) | > 100 µM (inactive) | > 100 µM (inactive) | > 100 µM (inactive) | > 100 µM (inactive) | > 100 µM (inactive) | – | – | > 100 µM (inactive) | > 100 µM (inactive)
